Measured values from patent US8828976B2, “Identification and use of compounds that affect the fidelity of eukaryotic translation initiation codon selection” (priority 2010, dated 2014).
Structures can show the parent of a compound that is named as a salt. Where two headings read alike, the source gives them in different places.

What was measured:
[1] = tested on: UUG start codon of Fluc mRNA (fidelity of start codon selection); assay: Dual luciferase assay, primary screen (FlucUUG/RlucAUG), BY4741 with pFuugRaug; format: cell-based, Saccharomyces cerevisiae; conditions: for raw FlucUUG value: at concentrations that decrease the other luciferase values
Text: In the assay, Renilla luciferase (Rluc) and firefly luciferase (Fluc) genes are expressed from a single plasmid, each under the control of a separate constitutive promoter and terminator, allowing transcription of the two genes as separate mRNAs. The Fluc mRNA has a non-AUG start codon (FIG. 2A). […] UUG was chosen as the near cognate start site in the screen, allowing easy identification of compounds that either increase expression (chemically reproducing a Sui^− phenotype, decreasing fidelity) or decrease expression (enhancing fidelity) of UUG relative to AUG in the dual luciferase assay.
BY4741 expressing the RaugFaug plasmid was included in the 1st and last column as an additional control. Compounds to be tested were supplied from the NCI DTP library in 96 well format at 1 mM in DMSO. DMSO was included in all control wells. 1.5 μL of compound (or DMSO) was added to each well of the yeast plate, followed by incubation at 30° C. for 4 hours while shaking. […] The same protocol was used when testing the other libraries, with the appropriate solvent controls. The Fuug/Raug ratio of each sample with drug was compared to the average Fuug/Raug ratio of the solvent only controls on the same plate.
Every row contains DMSO-only controls for each strain. For each compound-treated sample, the ratio of [Fluc(UUG)/Rluc(AUG)]/[Fluc(AUG)/Rluc(AUG)] is calculated using the DMSO-only Fluc(AUG)/Rluc(AUG) control from that row (there is one for each row in a plate). This ratio is the Fluc(UUG)/Fluc(AUG) ratio normalized to Rluc(AUG) activity in each sample. […] Potential changes include pipetting inaccuracies, differences in lysis efficiencies or global effects on gene expression due to differences in cell densities during growth. The internal Rluc control also helps screen out compounds that affect gene expression or cell growth globally rather than having specific effects on translation from non-AUG codons.
When a hit was identified, rescreening and counter screening assays were done using 300 μM to 10 nM of the compound, i.e., the identified “hit,” to measure concentration dependence.

[2] = tested on: AUG start codon of Fluc mRNA; assay: Dual luciferase counter-screen (FlucAUG/RlucAUG), BY4741 with pFaugRaug; format: cell-based, Saccharomyces cerevisiae; conditions: for FlucAUG/RlucAUG ratio in the presence of compound: BY4741, screening conditions
Procedure: The compounds were then tested in secondary assays.
The dual luciferase assay was carried out as in Kolitz et al. (RNA, vol. 15, no. 1, pp. 138-152, 2009), with the following modifications to screening conditions: An over-night culture of wild type yeast (BY4741 transformed with pFuugRaug) were diluted to an OD600 of approximately 0.2 in SC-Ura, and 50 μL were aliquoted to each well of a 96 well plate. BY4741 expressing the RaugFaug plasmid was included in the 1st and last column as an additional control. Compounds to be tested were supplied from the NCI DTP library in 96 well format at 1 mM in DMSO. DMSO was included in all control wells. 1.5 μL of compound (or DMSO) was added to each well of the yeast plate, followed by incubation at 30° C. for 4 hours while shaking. To measure luciferase activity, 1 μL of culture was added directly to 50 μL of 1× Passive Lysis Buffer (Promega), incubated 40-60 minutes at room temperature, then luciferase activity measured using a Turner Modulus Microplate Reader (Kolitz et al., RNA, vol. 15, no. 1, pp. 138-152, 2009). The same protocol was used when testing the other libraries, with the appropriate solvent controls. The Fuug/Raug ratio of each sample with drug was compared to the average Fuug/Raug ratio of the solvent only controls on the same plate.
Changes in the Fluc(UUG)/Rluc(AUG) ratio could be caused by a compound altering the use of UUG as a start codon (the desired target) or a variety of other effects such as changes in transcription of one gene, changes in mRNA or protein half-life, or inhibition or activation of one of the luciferase enzymes. […] Compounds that specifically increase use of near-cognate codons as start sites will not produce an effect in this Fluc(AUG)/Rluc(AUG) assay, whereas compounds that alter other process will not be specific for the Fluc(UUG)/Rluc(AUG) system and will still produce effects with the Fluc(AUG)/Rluc(AUG) reporter. Compounds that are not specific for effects on Fluc(UUG) expression will not be pursued further.

yeast cells = assay: Growth / toxicity to wild type yeast
[3] = tested on: FlucUUG/RlucAUG ratio in hc eIF1 strain; assay: Dual luciferase assay in strain over-expressing eIF1 (H3984, hc eIF1); format: cell-based, Saccharomyces cerevisiae; conditions: hc eIF1 vs BY4741; for suppression of the compound's effect on UUG initiation by over-expression of eIF1: 60 μM NSC218351, 3.8 μM NSC92218
Procedure: H3984 data are an average of 2 independent experiments. Error bars represent average deviation. The concentration of NSC218351 was 60 μM, and NSC92218 was 3.8 μM. Haplo-insufficiency results are averages of data from 2 separate transformants. The concentration of NSC218351 was 33 μM, and NSC92218 was 7 μM. FlucAUG/RlucAUG expression ratio with DMSO alone was used to normalize the Fluc/Rluc ratio for both FlucAUG and FlucUUG for each strain (normalized FlucAUG/RlucAUG with DMSO alone is 1 for each strain).
Data, from 2 independent experiments, were analyzed.

[4] = tested on: UUG start codon of PRE2 uORF; assay: uORF luciferase assay (PRE2 uORF with UUG start codon fused to firefly luciferase); format: cell-based, Saccharomyces cerevisiae; conditions: wild type yeast, normalized to DMSO alone
Procedure: BY4741 was transformed with pNTI33 or pNTI32. Transformants were incubated with compound and luciferase activity measured as described for the dual luciferase assay. The solvent-only firefly luciferase activity was used for normalization.
To further validate the effects of compounds that pass the primary and counterscreens, an additional reporter assay was performed. The assay uses a 5′-upstream open reading frame (uORF) that begins with a UUG codon and was shown in yeast to be translated, especially under amino acid starvation conditions (Castilho-Valavicius et al., Genetics, vol. 124, pp. 483-495, 1990). This uORF was fused both in-frame and out-of-frame to the firefly luciferase gene and the effect of the compounds on initiation on this physiologically relevant near-cognate start codon assessed.
This construct was used to assess the effect of the compounds on translation mediated by the non-AUG start codon of the uORFs. The PRE2 uORF has an UUG start codon, with the consensus sequence (−3)AAA(−1) directly upstream of UUG (FIG. 15). In the control reporter, the luciferase coding region is out-of-frame from the start codon of the uORF.

[5] = tested on: Sui- strain sui1-1 (eIF1 D83G); assay: Growth assay of Sui- strain sui1-1 (his4-303) on SC-His / SC plates with compound-soaked paper strips; conditions: for growth of sui1-1 close to the compound source: paper strip with 10 mM NSC92218 or 50 mM NSC218351, FIG. 18 column 1 and 5
Text: Compound or solvent soaked paper strips were placed on agar plates. Yeast were spotted onto the plate as 4 rows increasingly distant from the paper strip and grown for 4 days on SC-His and 2 days on SC.
An additional reporter assay utilizes a yeast strain in which the AUG start codon of the HIS4 gene has been changed to AUU (his4-303) (Huang et al., Genes Dev., vol. 11, pp. 2396-2413, 1997). This strain is a histidine auxotroph and cannot grow on medium lacking histidine. However, Sui^− mutations allow initiation from the AUU start site or, more commonly, a UUG three codons downstream from it, restoring expression of His4p and thus growth on His^− medium (Castilho-Valavicius et al., Genetics, vol. 124, pp. 483-495, 1990; Huang et al., Genes Dev., vol. 11, pp. 2396-2413, 1997; Yoon et al., Mol. Cell. Biol., vol. 12, pp. 248-260, 1992). Observing an alteration of the Sui^− phenotype is a more sensitive assay than rescuing growth of a wild type strain. […] Likewise, if the compound increases the fidelity of initiation, then growth should be compromised.
Yeast with the his4-303 allele from an over-night culture were washed with water and diluted to an OD600 between 0.1-1. Strips of sterile Whatman paper were soaked with compound or solvent and placed on an agar plate of the appropriate media. The yeast culture was spotted onto the plate at various distances from the paper strips. The plates were incubated at 30° C. Diffusion creates a gradient of compound, which tends to enhance growth only in a certain range because of off-setting toxicity at high concentrations.
Chemically increasing use of near-cognate codons as start codons mimics the Sui^− phenotype. Sui^− mutations were originally identified in a screen that requires translation initiation at a non-AUG start codon in a mutant of the HIS4 gene (his4-303 allele) for growth on SC-His media (Donahue et al., Mol. Cell. Biol., vol. 8, no. 7, pp. 2955-2963, 1988). Compounds that increase the use of non-AUG start codons to a small degree should further increase growth of Sui^− strains with the his4-303 allele on SC-His media, chemically enhancing the Sui^− phenotype. To test this, a paper strip saturated with compound was placed onto a plate of media (SC or SC-His). Yeast with the his4-303 allele was spotted on the plate at various distances from the compound- or solvent-containing strips.

Sui- mutant eIF1 D83G = assay: Growth of Sui- mutant eIF1 D83G in His- culture (doubling time); format: cell-based, Saccharomyces cerevisiae; conditions: His- culture with compound; decreased from 8 hrs
Text: Doubling times were quantified for two experiments by plotting Log2(OD600) vs. time. The slope of the line between −2.5<Log2(OD600)<2 equals 1/doubling time.
(§1) While small, the effects are reproducible. No effects on growth of Sui^− strains with mutations in other initiation factors (eIF1A, eIF2, and eIF5) have been detected.

[6] = tested on: Sui- strains with mutations in eIF1A, eIF2, and eIF5; assay: Growth of Sui- strains with mutations in other initiation factors; format: cell-based, Saccharomyces cerevisiae
Text: as §1

[7] = tested on: near-cognate start codons; assay: Dual luciferase assay with Fluc reporters with different near-cognate start codons; format: cell-based, Saccharomyces cerevisiae; conditions: Fluc reporter with AUU start codon
Procedure: AAG and AGG are not used detectably as Fluc initiation codons in yeast (Kolitz et al., RNA, vol. 15, no. 1, pp. 138-152, 2009) and were thus not tested. […] Efficiency of use of near cognate codons as initiation sites was measured with the dual luciferase assay in several Sui^− mutant strains. Translation from each alternative start codon in the Sui^− strain was normalized to translation from that codon in a wild type strain. Sui^− mutations increase the use of near cognates up to 18-fold (GUG in eIF1 D83G strain). However, in each mutant strain, translation from AUU is increased the least. Although it is not understood why AUU behaves anomalously, it is interesting that NSC218351 mimics this aspect of the behavior of the Sui^− mutations in initiation factors.

[8] = analogs of NSC92218, 8 μM, ratio normalized to DMSO control
[9] = 50 mM on the paper strip, SC-His

Compound: COc1cc(N)c2ncccc2c1Cl [Cpd 19, 5-chloro-6-methoxyquinolin-8-amine]
- UUG/AUG (primary screen effect) [1, 8]: 0.94
- AUG/AUG (counter screen effect) [2, 8]: 0.99

Compound: Nc1cc(I)c2cccnc2c1O [NSC92218, 7-amino-5-iodo-8-quinolinol hydrochloride]
- increase of the FlucUUG/RlucAUG ratio [1]: 1.8 fold
- minimal concentration required to achieve the 1.8-fold increase of the UUG/AUG ratio [1]: 15 µM
- raw FlucUUG value [1]: did not change, or increases slightly
- concentration that does not affect growth of wild type yeast while the FlucUUG/RlucAUG ratio increases (yeast cells): 2 µM
- FlucAUG/RlucAUG ratio in the presence of compound [2]: did not change
- reduction of the compound's effect in the eIF1 over-expressing strain relative to wild type cells ([3]; 3.8 μM): ~50%
- suppression of the compound's effect on UUG initiation by over-expression of eIF1 [3]: partially
- increase of expression of the in-frame PRE2 uORF-Fluc reporter [4]: ~2 fold
- growth of sui1-1 in column 1 on SC-His relative to the inhibitory effect on SC ([5]; 2.5 mM on the paper strip): growth enhancement occurred
- growth of sui1-1 on SC-His in columns 2 and 3 ([5]; 10 mM on the paper strip): enhanced growth
- growth of sui1-1 close to the compound source [5]: prevented growth

Compound: O=C(O)c1nccc2ccccc12 [NSC218351, isoquinoline-1-carboxylic acid]
- minimal concentration for the effect, NSC218351 relative to NSC92218 ([1]; 60 μM vs 15 μM, higher for NSC218351): 4 fold
- minimal concentration required to achieve the 1.8-fold increase of the UUG/AUG ratio ([1]; BY4741): 60 µM
- increase of the FlucUUG/RlucAUG ratio ([1]; BY4741, 4 hours with compound, reached at 60 μM NSC218351 / 15 μM NSC92218): 1.8 fold
- raw FlucUUG value [1]: increased slightly
- raw RlucAUG value ([1]; pFuugRaug plasmid, increasing concentration): decreased
- toxicity to yeast cells (yeast cells): not toxic
- concentration that does not affect growth of wild type yeast while the FlucUUG/RlucAUG ratio increases (yeast cells): 50 µM
- concentration at which growth was reduced (yeast cells; yeast): 300 µM
- working concentrations at which toxicity is not a concern (yeast cells; yeast): 10 to 100 µM
- FlucAUG/RlucAUG ratio in the presence of compound [2]: does not change
- suppression of the compound's effect on UUG initiation by over-expression of eIF1 [3]: completely suppressed
- doubling time of eIF1 D83G (Sui- mutant eIF1 D83G): 7.35 h
- growth of Sui- strains with mutations in other initiation factors (eIF1A, eIF2, and eIF5) [6]: No effects
- initiation at AUU codons [7]: did not increase
- increase of expression of the in-frame PRE2 uORF-Fluc reporter [4]: approximately 1.5 fold
- growth of sui1-1 on SC-His in the column closest to the compound source ([5]; 12.5 mM on the paper strip, column 1): enhanced
- growth of sui1-1 on selective media close to the drug source [5, 9]: inhibited
- growth of sui1-1 on selective media farther from the source relative to DMSO [5, 9]: enhanced
- growth of the eIF1 Sui- strains on His- plates ([5]; His- plates): enhances the growth
- growth of sui1-1 close to the compound source [5]: slowed growth

Compound: C[C@@H]1C[C@@H]([C@H](O)CC2CC(=O)NC(=O)C2)C(=O)[C@@H](C)C1 [cycloheximide, reference compound]
- effect on FlucUUG/RlucAUG ratio ([1]; BY4741 grown under screening conditions): altered
- raw luciferase values relative to control values ([1]; cells grown under screening conditions, four hours): ~25%
- FlucAUG/RlucAUG ratio in the presence of compound [2]: also altered
